The values that follow come from the supplement of paper PMC10307832.

Common to all, as to assay: relative viability (nuclei count vs DMSO), 5 days (fraction); higher = more cells survive
Compound in the assay “OSI-027 + Crizotinib”: COc1cccc2cc(-c3nc([C@H]4CC[C@H](C(=O)O)CC4)n4ncnc(N)c34)[nH]c12 [OSI-027] + C[C@@H](Oc1cc(-c2cnn(C3CCNCC3)c2)cnc1N)c1c(Cl)ccc(F)c1Cl [Crizotinib] (partner 1 µM)
The method, boiled down:
(§1)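 Dosing by pin tool came one day after lung cancer cell lines were seeded in 1536-well plates, using either one drug or a fixed anchor-drug dose plus five library-drug doses (not always all listed) in √10 steps. After 5 days, nuclei were counted on 4× images. Relative viability is treated-well nuclei count divided by vehicle-well nuclei count, and values are medians of duplicate plates.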

Compound in the assay “Alpelisib + Olaparib”: Cc1nc(NC(=O)N2CCC[C@H]2C(N)=O)sc1-c1ccnc(C(C)(C)C(F)(F)F)c1 [Alpelisib] + O=C(c1cc(Cc2n[nH]c(=O)c3ccccc23)ccc1F)N1CCN(C(=O)C2CC2)CC1 [Olaparib] (partner 8 µM)
The essentials: as §1

Compound in the assay “Alpelisib + Bortezomib”: Cc1nc(NC(=O)N2CCC[C@H]2C(N)=O)sc1-c1ccnc(C(C)(C)C(F)(F)F)c1 [Alpelisib] + CC(C)C[C@H](NC(=O)[C@H](Cc1ccccc1)NC(=O)c1cnccn1)B(O)O [Bortezomib] (partner 0.002 µM)
The method, boiled down:
as §1

Compound in the assay “Vemurafenib + Luminespib”: CCCS(=O)(=O)Nc1ccc(F)c(C(=O)c2c[nH]c3ncc(-c4ccc(Cl)cc4)cc23)c1F [Vemurafenib] + CCNC(=O)c1noc(-c2cc(C(C)C)c(O)cc2O)c1-c1ccc(CN2CCOCC2)cc1 [Luminespib] (partner 0.01 µM)
The essentials: as §1

Consider UMC-11, for which the relative viability with OSI-027 + Crizotinib (first compound 0.01 µM) worked out at 0.499; with OSI-027 + Crizotinib (first compound 0.03162 µM), 0.535; with OSI-027 + Crizotinib (first compound 0.1 µM), 0.587; with OSI-027 + Crizotinib (first compound 0.3162 µM), 0.491; in the assay with OSI-027 + Crizotinib (first compound 1 µM), 0.378; in the assay with Alpelisib + Olaparib (first compound 0.04 µM) it was 0.362. Moreover, the relative viability with Alpelisib + Olaparib (first compound 0.1265 µM) turned out to be 0.328; with Alpelisib + Olaparib (first compound 0.4 µM), 0.389; with Alpelisib + Olaparib (first compound 1.265 µM) it was 0.346; in the assay with Alpelisib + Olaparib (first compound 4 µM), 0.315; with Alpelisib + Bortezomib (first compound 0.04 µM), 0.677; in the assay with Alpelisib + Bortezomib (first compound 0.1265 µM), 0.981. Besides, the relative viability turned out to be 0.672 in the assay with Alpelisib + Bortezomib (first compound 0.4 µM); 0.734 with Alpelisib + Bortezomib (first compound 1.265 µM); 0.465 with Alpelisib + Bortezomib (first compound 4 µM); 0.916 with Vemurafenib + Luminespib (first compound 0.03162 µM); 0.991 with Vemurafenib + Luminespib (first compound 0.1 µM); 0.984 with Vemurafenib + Luminespib (first compound 0.3162 µM). The relative viability with Vemurafenib + Luminespib (first compound 1 µM) was found to be 0.941.
